Results published in the supplement of paper PMC10307832.

What was measured:
Assay in all cases: relative viability (nuclei count vs DMSO), 5 days (fraction); higher = more cells survive
HCC-44 = system: HCC-44
Procedure, shortened: (§1)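 One day after seeding in 1536-well plates, lung cancer cell lines were dosed by pin tool. Dosing was either single-drug or a fixed anchor-drug dose plus five library-drug doses (not always all listed) in √10 steps. After 5 days, nuclei were stained in one fix-and-stain step and counted on 4× images, and relative viability is the nuclei count of treated wells over that of vehicle wells, given as the median of duplicate plates.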

NCI-H1651 = system: NCI-H1651
Procedure, shortened: as §1

PC-3 [JPC-3] = system: PC-3 [JPC-3]
Procedure, shortened: as §1

LOU-NH91 = system: LOU-NH91
Procedure, shortened: as §1

SK-LU-1 = system: SK-LU-1
Procedure, shortened: as §1

NCI-H1944 = system: NCI-H1944
Procedure, shortened: as §1

NCI-H1437 = system: NCI-H1437
Procedure, shortened: as §1

NCI-H1734 = system: NCI-H1734
Procedure, shortened: as §1

NCI-H2170 = system: NCI-H2170
Procedure, shortened: as §1

201T = system: 201T
Procedure, shortened: as §1

NCI-H322M = system: NCI-H322M
Procedure, shortened: as §1

NCI-H596 = system: NCI-H596
Procedure, shortened: as §1

EBC-1 = system: EBC-1
Procedure, shortened: as §1

LK-2 = system: LK-2
Procedure, shortened: as §1

NCI-H2228 = system: NCI-H2228
Procedure, shortened: as §1

PC-14 = system: PC-14
Procedure, shortened: as §1

HCC-78 = system: HCC-78
Procedure, shortened: as §1

IA-LM = system: IA-LM
Procedure, shortened: as §1

NCI-H2087 = system: NCI-H2087
Procedure, shortened: as §1

HCC-366 = system: HCC-366
Procedure, shortened: as §1

NCI-H647 = system: NCI-H647
Procedure, shortened: as §1

NCI-H2023 = system: NCI-H2023
Procedure, shortened: as §1

NCI-H2085 = system: NCI-H2085
Procedure, shortened: as §1

ABC-1 = system: ABC-1
Procedure, shortened: as §1

Nc1cccc2c1CN(C1CCC(=O)NC1=O)C2=O (stereo not drawn) [Lenalidomide] + CC1(C)CCC(c2ccc(Cl)cc2)=C(CN2CCN(c3ccc(C(=O)NS(=O)(=O)c4ccc(N[C@H](CCN5CCOCC5)CSc5ccccc5)c(S(=O)(=O)C(F)(F)F)c4)cc3)CC2)C1 [Navitoclax] (partner 0.5 µM)
relative viability (HCC-44; first compound 0.253 µM): 0.966
relative viability (HCC-44; first compound 0.8 µM): 0.75
relative viability (HCC-44; first compound 2.53 µM): 1.1
relative viability (HCC-44; first compound 8 µM): 0.917
relative viability (NCI-H1651; first compound 0.253 µM): 1.04
relative viability (NCI-H1651; first compound 0.8 µM): 0.931
relative viability (NCI-H1651; first compound 2.53 µM): 1.25
relative viability (NCI-H1651; first compound 8 µM): 0.898
relative viability (PC-3 [JPC-3]; first compound 0.253 µM): 0.752
relative viability (PC-3 [JPC-3]; first compound 0.8 µM): 0.771
relative viability (PC-3 [JPC-3]; first compound 2.53 µM): 0.863
relative viability (PC-3 [JPC-3]; first compound 8 µM): 0.734
relative viability (LOU-NH91; first compound 0.253 µM): 0.614
relative viability (LOU-NH91; first compound 0.8 µM): 0.631
relative viability (LOU-NH91; first compound 2.53 µM): 0.673
relative viability (LOU-NH91; first compound 8 µM): 0.692
relative viability (SK-LU-1; first compound 0.253 µM): 0.729
relative viability (SK-LU-1; first compound 0.8 µM): 0.946
relative viability (SK-LU-1; first compound 2.53 µM): 1.45
relative viability (SK-LU-1; first compound 8 µM): 0.924
relative viability (NCI-H1944; first compound 0.253 µM): 0.984
relative viability (NCI-H1944; first compound 0.8 µM): 1.08
relative viability (NCI-H1944; first compound 2.53 µM): 1.02
relative viability (NCI-H1944; first compound 8 µM): 0.873
relative viability (NCI-H1437; first compound 0.253 µM): 1.08
relative viability (NCI-H1437; first compound 0.8 µM): 1.09
relative viability (NCI-H1437; first compound 2.53 µM): 1.14
relative viability (NCI-H1437; first compound 8 µM): 1.14
relative viability (NCI-H1734; first compound 0.253 µM): 0.802
relative viability (NCI-H1734; first compound 0.8 µM): 0.831
relative viability (NCI-H1734; first compound 2.53 µM): 1.01
relative viability (NCI-H1734; first compound 8 µM): 0.796
relative viability (NCI-H2170; first compound 0.253 µM): 0.552
relative viability (NCI-H2170; first compound 0.8 µM): 0.595
relative viability (NCI-H2170; first compound 2.53 µM): 0.593
relative viability (NCI-H2170; first compound 8 µM): 0.481
relative viability (201T; first compound 0.253 µM): 1.21
relative viability (201T; first compound 0.8 µM): 1.22
relative viability (201T; first compound 2.53 µM): 1.19
relative viability (201T; first compound 8 µM): 1.22
relative viability (NCI-H322M; first compound 0.253 µM): 1
relative viability (NCI-H322M; first compound 0.8 µM): 1.42
relative viability (NCI-H322M; first compound 2.53 µM): 1.17
relative viability (NCI-H322M; first compound 8 µM): 0.965
relative viability (NCI-H596; first compound 0.253 µM): 0.951
relative viability (NCI-H596; first compound 0.8 µM): 0.795
relative viability (NCI-H596; first compound 2.53 µM): 0.989
relative viability (NCI-H596; first compound 8 µM): 0.879
relative viability (EBC-1; first compound 0.253 µM): 0.374
relative viability (EBC-1; first compound 0.8 µM): 0.399
relative viability (EBC-1; first compound 2.53 µM): 0.434
relative viability (EBC-1; first compound 8 µM): 0.481
relative viability (LK-2; first compound 0.253 µM): 0.817
relative viability (LK-2; first compound 0.8 µM): 0.85
relative viability (LK-2; first compound 2.53 µM): 0.959
relative viability (LK-2; first compound 8 µM): 0.709
relative viability (NCI-H2228; first compound 0.253 µM): 0.821
relative viability (NCI-H2228; first compound 0.8 µM): 0.711
relative viability (NCI-H2228; first compound 2.53 µM): 0.949
relative viability (NCI-H2228; first compound 8 µM): 0.905
relative viability (PC-14; first compound 0.253 µM): 0.907
relative viability (PC-14; first compound 0.8 µM): 1.02
relative viability (PC-14; first compound 2.53 µM): 1.08
relative viability (PC-14; first compound 8 µM): 1.05
relative viability (HCC-78; first compound 0.253 µM): 0.834
relative viability (HCC-78; first compound 0.8 µM): 0.72
relative viability (HCC-78; first compound 2.53 µM): 0.842
relative viability (HCC-78; first compound 8 µM): 0.654
relative viability (IA-LM; first compound 0.253 µM): 0.895
relative viability (IA-LM; first compound 0.8 µM): 0.715
relative viability (IA-LM; first compound 2.53 µM): 0.829
relative viability (IA-LM; first compound 8 µM): 0.786
relative viability (NCI-H2087; first compound 0.253 µM): 1.03
relative viability (NCI-H2087; first compound 0.8 µM): 0.971
relative viability (NCI-H2087; first compound 2.53 µM): 0.962
relative viability (NCI-H2087; first compound 8 µM): 1.06
relative viability (HCC-366; first compound 0.253 µM): 1.02
relative viability (HCC-366; first compound 0.8 µM): 1.19
relative viability (HCC-366; first compound 2.53 µM): 1.13
relative viability (HCC-366; first compound 8 µM): 1.08
relative viability (NCI-H647; first compound 0.253 µM): 1.08
relative viability (NCI-H647; first compound 0.8 µM): 1.11
relative viability (NCI-H647; first compound 2.53 µM): 1.4
relative viability (NCI-H647; first compound 8 µM): 1.04
relative viability (NCI-H2023; first compound 0.253 µM): 1
relative viability (NCI-H2023; first compound 0.8 µM): 1.13
relative viability (NCI-H2023; first compound 2.53 µM): 1.05
relative viability (NCI-H2023; first compound 8 µM): 1.01
relative viability (NCI-H2085; first compound 0.253 µM): 1.25
relative viability (NCI-H2085; first compound 0.8 µM): 1.16
relative viability (NCI-H2085; first compound 2.53 µM): 1.26
relative viability (NCI-H2085; first compound 8 µM): 1.2

Nc1cccc2c1CN(C1CCC(=O)NC1=O)C2=O (stereo not drawn) [Lenalidomide] + CCNC(=O)c1noc(-c2cc(C(C)C)c(O)cc2O)c1-c1ccc(CN2CCOCC2)cc1 [Luminespib] (partner 0.01 µM)
relative viability (HCC-44; first compound 0.253 µM): 0.988
relative viability (HCC-44; first compound 2.53 µM): 1.4
relative viability (HCC-44; first compound 8 µM): 1.23
relative viability (NCI-H1651; first compound 0.253 µM): 0.713
relative viability (NCI-H1651; first compound 0.8 µM): 0.895
relative viability (NCI-H1651; first compound 2.53 µM): 0.987
relative viability (NCI-H1651; first compound 8 µM): 1.03
relative viability (PC-3 [JPC-3]; first compound 0.253 µM): 0.651
relative viability (PC-3 [JPC-3]; first compound 0.8 µM): 0.729
relative viability (PC-3 [JPC-3]; first compound 2.53 µM): 0.616
relative viability (PC-3 [JPC-3]; first compound 8 µM): 0.572
relative viability (LOU-NH91; first compound 0.253 µM): 0.343
relative viability (LOU-NH91; first compound 0.8 µM): 0.343
relative viability (LOU-NH91; first compound 2.53 µM): 0.313
relative viability (LOU-NH91; first compound 8 µM): 0.283
relative viability (SK-LU-1; first compound 0.253 µM): 0.177
relative viability (SK-LU-1; first compound 0.8 µM): 0.218
relative viability (SK-LU-1; first compound 2.53 µM): 0.198
relative viability (SK-LU-1; first compound 8 µM): 0.226
relative viability (NCI-H1944; first compound 0.253 µM): 0.675
relative viability (NCI-H1944; first compound 0.8 µM): 0.777
relative viability (NCI-H1944; first compound 2.53 µM): 0.871
relative viability (NCI-H1944; first compound 8 µM): 0.502
relative viability (NCI-H1437; first compound 0.253 µM): 1.19
relative viability (NCI-H1437; first compound 0.8 µM): 1.08
relative viability (NCI-H1437; first compound 2.53 µM): 1.11
relative viability (NCI-H1437; first compound 8 µM): 1.23
relative viability (NCI-H1734; first compound 0.253 µM): 0.157
relative viability (NCI-H1734; first compound 0.8 µM): 0.202
relative viability (NCI-H1734; first compound 2.53 µM): 0.206
relative viability (NCI-H1734; first compound 8 µM): 0.196
relative viability (NCI-H2170; first compound 0.253 µM): 0.683
relative viability (NCI-H2170; first compound 0.8 µM): 0.799
relative viability (NCI-H2170; first compound 2.53 µM): 0.588
relative viability (NCI-H2170; first compound 8 µM): 0.426
relative viability (201T; first compound 0.253 µM): 1.05
relative viability (201T; first compound 2.53 µM): 1.03
relative viability (201T; first compound 8 µM): 1.09
relative viability (NCI-H322M; first compound 0.253 µM): 0.81
relative viability (NCI-H322M; first compound 0.8 µM): 0.982
relative viability (NCI-H322M; first compound 2.53 µM): 1.05
relative viability (NCI-H322M; first compound 8 µM): 1.01
relative viability (NCI-H596; first compound 0.253 µM): 0.967
relative viability (NCI-H596; first compound 2.53 µM): 1.29
relative viability (NCI-H596; first compound 8 µM): 0.985
relative viability (LK-2; first compound 0.253 µM): 0.195
relative viability (LK-2; first compound 0.8 µM): 0.179
relative viability (LK-2; first compound 2.53 µM): 0.173
relative viability (LK-2; first compound 8 µM): 0.193
relative viability (NCI-H2228; first compound 0.253 µM): 0.156
relative viability (NCI-H2228; first compound 0.8 µM): 0.103
relative viability (NCI-H2228; first compound 2.53 µM): 0.115
relative viability (NCI-H2228; first compound 8 µM): 0.189
relative viability (PC-14; first compound 0.253 µM): 0.152
relative viability (PC-14; first compound 0.8 µM): 0.191
relative viability (PC-14; first compound 2.53 µM): 0.151
relative viability (PC-14; first compound 8 µM): 0.133
relative viability (NCI-H2087; first compound 0.253 µM): 0.233
relative viability (NCI-H2087; first compound 0.8 µM): 0.156
relative viability (NCI-H2087; first compound 2.53 µM): 0.14
relative viability (NCI-H2087; first compound 8 µM): 0.169
relative viability (ABC-1; first compound 0.253 µM): 0.908
relative viability (ABC-1; first compound 2.53 µM): 0.684
relative viability (ABC-1; first compound 8 µM): 0.517
relative viability (NCI-H647; first compound 0.253 µM): 0.133
relative viability (NCI-H647; first compound 0.8 µM): 0.284
relative viability (NCI-H647; first compound 2.53 µM): 0.203
relative viability (NCI-H647; first compound 8 µM): 0.26
relative viability (NCI-H2023; first compound 0.253 µM): 0.869
relative viability (NCI-H2023; first compound 0.8 µM): 0.915
relative viability (NCI-H2023; first compound 2.53 µM): 0.685
relative viability (NCI-H2023; first compound 8 µM): 0.824
relative viability (NCI-H2085; first compound 0.253 µM): 0.487
relative viability (NCI-H2085; first compound 0.8 µM): 0.487
relative viability (NCI-H2085; first compound 2.53 µM): 0.367
relative viability (NCI-H2085; first compound 8 µM): 0.437
